Experimental data published in publication PMC8515607 (ACS Omega, 2021).
Where two headings read alike, the source gives them in different places.

Legend:
[1] = tested on: human colon adenocarcinoma cell lines; settings: cited from earlier work
A549 [2] = tested on: A549; set-up: method as in PMID 32295119; settings: amide directly on C7; cited from earlier work
MCF-7 [3] = tested on: MCF-7; set-up: method as in PMID 32295119; settings: amide directly on C7; cited from earlier work
LoVo [4] = tested on: LoVo; set-up: method as in PMID 32295119; settings: cited from earlier work
A549 and MCF7 cells = tested on: A549 and MCF7 cells; set-up: method as in PMID 32295119; settings: read-out: IC50 A549 and MCF7 of 7-amide (span); amide directly on C7; cited from earlier work
A549 [5] = test: cells; assay type: cell-based, human; settings: for A549 SI: selectivity index = IC50 BALB/3T3 / IC50 A549
Description: (§1) The A549 and MCF7 cell lines were purchased from the European Collection of Authenticated Cell Cultures (ECACC, Salisbury, U.K., 86012804 and 86012803). The LoVo cell line was purchased from the American Type Culture Collection (CCL-229, ATCC, Manassas, VA), and LoVo/DX by courtesy of Prof. E. Borowski (Technical University of Gdańsk, Gdańsk, Poland). The BALB/3T3 cell line was purchased from the American Type Culture Collection (CCL-163, ATCC, Manassas, VA). All of the cell lines are maintained in the Institute of Immunology and Experimental Therapy (IIET), Wroclaw, Poland.
(§2) A549 cells were cultured in a mixture of OptiMEM and Roswell Park Memorial Institute (RPMI) 1640 (1:1) medium (IIET, Wroclaw, Poland), supplemented with 10% fetal bovine serum HyClone (GE Healthcare) and 2 mM L-glutamine (Sigma-Aldrich, Germany). MCF7 cells were cultured in a mixture of Eagle’s medium (IIET, Wroclaw, Poland), supplemented with 10% fetal bovine serum, 2 mM L-glutamine, and insulin (Sigma-Aldrich, Germany). LoVo and LoVo/DX cells were cultured in F12K medium (Corning), supplemented with 10% fetal bovine serum HyClone (GE Healthcare) and 0.1 μg/mL doxorubicin (Accord) for LoVo/DX. BALB/3T3 fibroblasts were cultured in Dulbecco’s medium (Gibco), supplemented with 10% fetal bovine serum (GE Healthcare) and 2 mM L-glutamine (Sigma-Aldrich, Germany). All culture media contained antibiotics: 100 U/mL penicillin (Polfa-Tarchomin, Poland) and 0.1 mg/mL streptomycin (Sigma-Aldrich, Germany). All cell lines were cultured during entire experiment in humid atmosphere at 37 °C and 5% CO2.
(§3) All cell lines were exposed to each tested agent at different concentrations in the range 100–0.00001 μg/mL for 72 h. The cells were also exposed to the reference drug cisplatin (Teva Pharmaceuticals, Poland) and doxorubicin (Accord Healthcare Limited, U.K.). Additionally, all cell lines were exposed to dimethyl sulfoxide (DMSO) (solvent used for tested compounds) (POCh, Poland) at concentrations corresponding to those present in tested agents dilutions. After 72 h, sulforhodamine B (SRB) assay was performed.[57]
(§4) After 72 h of incubation with the tested compounds, the cells were fixed in situ by gently adding cold 50% trichloroacetic acid (TCA) (POCh, Poland) and were incubated at room temperature for 1 h. Then, the wells were washed four times with water and air-dried. Next, 0.1% solution of sulforhodamine B (Sigma-Aldrich, Germany) in 1% acetic acid (POCh, Poland) was added to each well and the plates were incubated at room temperature for 0.5 h. After incubation time, unbound dye was removed by washing plates four times with 1% acetic acid, whereas stain bound to cells was solubilized with 10 mM Tris base (Sigma-Aldrich, Germany). Absorbance of each solution was read at Synergy H4 Hybrid Multi-Mode Microplate Reader (BioTek Instruments) at the 540 nm wavelength.
(§5) IC50 values were calculated in Excel sheet using formulas adapted by Mateusz Psurski fromCheburator 0.4, Dmitry Nevozhay software (version 1.2.0 software by Dmitry Nevozhay, 2004–2014, http://www.cheburator.nevozhay.com, freely available) for each experiment.[58] Compounds at each concentration were tested in triplicate in a single experiment, and each experiment was repeated at least three times independently.

LoVo/DX = test: cells; assay type: cell-based, human; settings: for LoVo/DX RI: resistance index = IC50 LoVo/DX / IC50 LoVo; for LoVo/DX SI: selectivity index = IC50 BALB/3T3 / IC50 LoVo/DX
Description: as §1, §2, §3, §4, §5

LoVo [6] = test: cells; assay type: cell-based, human; settings: for IC50: Homo sapiens, LoVo, 72 h, read-out: LoVo IC50 (nM); for LoVo SI: selectivity index = IC50 BALB/3T3 / IC50 LoVo
Description: as §1, §2, §3, §4, §5

MCF-7 [7] = test: cells; assay type: cell-based, human; settings: for IC50: Homo sapiens, MCF7, 72 h, read-out: MCF-7 IC50 (nM); for MCF-7 SI: selectivity index = IC50 BALB/3T3 / IC50 MCF-7
Description: as §1, §2, §3, §4, §5

BALB/3T3 = test: In vitro antiproliferative activity, SRB assay, normal fibroblasts BALB/3T3; assay type: cell-based; settings: Mus musculus, BALB/3T3, normal murine embryonic fibroblasts, 72 h, mean ± SD
Description: as §1, §2, §3, §4, §5

[8] = tested on: all cells used, both cancerous and normal; test: Antiproliferative activity, values quoted jointly for all cell lines tested; assay type: cell-based
Description: as §1, with “Poland. […]” for “Poland.”
After 72 h of incubation with the tested compounds, the cells were fixed in situ by gently adding cold 50% trichloroacetic acid (TCA) (POCh, Poland) and were incubated at room temperature for 1 h. […] Absorbance of each solution was read at Synergy H4 Hybrid Multi-Mode Microplate Reader (BioTek Instruments) at the 540 nm wavelength.
IC50 values were calculated in Excel sheet using formulas adapted by Mateusz Psurski fromCheburator 0.4, Dmitry Nevozhay software (version 1.2.0 software by Dmitry Nevozhay, 2004–2014, http://www.cheburator.nevozhay.com, freely available) for each experiment.[58] […]

[9] = tested on: A549, MCF-7, and LoVo cells; test: Antiproliferative activity, values quoted jointly for three tumor lines; assay type: cell-based, human; settings: summary of Table 1; for IC50: Homo sapiens, read-out: IC50 against A549, MCF-7, and LoVo cells (span over the three lines)
Description: as §1, §2, §3, §4, §5

[10] = Homo sapiens, A549, 72 h, read-out: A549 IC50 (nM), 72 h exposure, SRB, mean ± SD
[11] = Homo sapiens, LoVo/DX, 72 h, read-out: LoVo/DX IC50 (nM), 72 h exposure, SRB, mean ± SD
[12] = read-out: LoVo/DX IC50, 72 h exposure, SRB, mean ± SD

| SMILES | IC50 (A549 [5]; [10]) | A549 SI (A549 [5]) | IC50 (LoVo/DX; [11]) | LoVo/DX RI (LoVo/DX) | LoVo/DX SI (LoVo/DX) | IC50 (LoVo [6]) | LoVo SI (LoVo [6]) | IC50 (MCF-7 [7]) | MCF-7 SI (MCF-7 [7]) | IC50 (BALB/3T3) | IC50 [9] | also measured |
| --- | --- | --- | --- | --- | --- | --- | --- | --- | --- | --- | --- | --- |
| CNc1ccc2c(cc1=O)C(NCc1ccccc1Cl)CCc1cc(OC)c(OC)c(OC)c1-2 (stereo not drawn) [7-N-(2-chlorobenzyl)-10-methylaminocolchcine] |  |  |  |  |  |  |  |  |  |  |  | calculated selectivity coefficients [1]: around 90 |
| CCCCCCCCCCCCCCCC(=O)N[C@H]1CCc2cc(OC)c(OC)c(OC)c2-c2ccc(NC)c(=O)cc21 [7-palmitamide] |  |  |  |  |  |  |  |  |  |  |  | SI A549 of 7-amide (A549 [2]): 0.9; SI MCF7 of 7-amide (MCF-7 [3]): 1.2; SI LoVo of 7-amide (LoVo [4]; amide directly on C7): 8.8; IC50 (LoVo [4]; read-out: IC50 LoVo of 7-amide, amide directly on C7 of 10-N-methylaminocolchicine): 62 nM; IC50 (A549 and MCF7 cells): 460 to 620 nM |
| CNc1ccc2c(cc1=O)[C@@H](N=[N+]=[N-])CCc1cc(OC)c(OC)c(OC)c1-2 [Compound 4, 7-azido-10-N-methylaminocolchicine] | 1.4 ± 0.5 nM | 1.5 | 1.7 ± 0.6 nM | 1.5 | 1.2 | 1.1 ± 0.5 nM | 1.9 | 1.5 ± 0.3 nM | 1.4 | 2.1 ± 1.2 nM |  | SI (selectivity coefficients, all cancer lines) [8]: < 2; IC50 ([8]; cancerous and normal lines, read-out: IC50 against all cells used (span)): 1.1 to 2.1 nM |
| CNc1ccc2c(cc1=O)[C@@H](n1cc(C(=O)OC)nn1)CCc1cc(OC)c(OC)c(OC)c1-2 [Compound 18] | 13 ± 2.3 nM | 1.5 | 280 ± 77 nM | 23 | 0.1 | 12 ± 4.3 nM | 1.7 | 12 ± 2.7 nM | 1.7 | 20 ± 13 nM | 10 to 25 nM |  |
| CCOC(=O)c1cn([C@H]2CCc3cc(OC)c(OC)c(OC)c3-c3ccc(NC)c(=O)cc32)nn1 [Compound 19] | 17 ± 0.8 nM | 1.4 | 220 ± 23 nM | 17 | 0.1 | 13 ± 3.5 nM | 1.8 | 11 ± 3.7 nM |  | 24 ± 11 nM | 10 to 25 nM |  |
| CNc1ccc2c(cc1=O)[C@@H](n1cc(C(=O)OCc3ccc(F)cc3)nn1)CCc1cc(OC)c(OC)c(OC)c1-2 [Compound 21] | 21 ± 7.7 nM | 1.2 | 530 ± 110 nM | 25 | 0.1 | 21 ± 6.4 nM | 1.2 | 21 ± 8 nM | 1.2 | 25 ± 5.6 nM | 10 to 25 nM |  |
| CNc1ccc2c(cc1=O)[C@@H](n1cc(CNC(=O)C(Cl)Cl)nn1)CCc1cc(OC)c(OC)c(OC)c1-2 [Compound 31] | 3.3 ± 1.1 nM | 3.0 | ≤ 1000 nM | 270 | <0.1 | 3.1 ± 1.1 nM | 3.2 | 3 ± 1.5 nM | 3.3 | 9.9 ± 3 nM | 2.7 to 6.3 nM | IC50 (LoVo/DX; [12]): 830 ± 220 nM |
| CNc1ccc2c(cc1=O)[C@@H](n1cc(CNC(=O)CCCCCl)nn1)CCc1cc(OC)c(OC)c(OC)c1-2 [Compound 32] | 4.4 ± 1.3 nM | 5.0 | 2800 ± 200 nM | 560 | <0.1 | 5 ± 0.4 nM | 4.4 | 2.7 ± 1.1 nM | 8.1 | 22 ± 5.6 nM | 2.7 to 6.3 nM |  |
| CNc1ccc2c(cc1=O)[C@@H](n1cc(CNC(=O)c3ccccc3Cl)nn1)CCc1cc(OC)c(OC)c(OC)c1-2 [Compound 35] | 5.7 ± 2 nM | 2.1 | ≤ 1000 nM | 160 | <0.1 | 6.3 ± 3.1 nM | 1.9 | 3.8 ± 0.4 nM | 3.2 | 12 ± 2.9 nM | 2.7 to 6.3 nM | IC50 (LoVo/DX; [12]): 1000 ± 97 nM |
| C=CCOC(=O)NCc1cn([C@H]2CCc3cc(OC)c(OC)c(OC)c3-c3ccc(NC)c(=O)cc32)nn1 [Compound 39] | 3.3 ± 0.5 nM | 2.8 | 440 ± 64 nM | 100 | <0.1 | 4.3 ± 0.6 nM | 2.1 | 2.6 ± 0.5 nM | 3.5 | 9.1 ± 2.6 nM |  | SI for A549, MCF-7, and LoVo cells (span) [9]: 2.1–3.9 |
| CNc1ccc2c(cc1=O)[C@@H](n1cc(CNC(=O)OCC(C)C)nn1)CCc1cc(OC)c(OC)c(OC)c1-2 [Compound 40] | 1.2 to 1.9 nM | 3.3 | 310 ± 61 nM | 180 | <0.1 | 1.7 ± 0.2 nM | 2.3 | 1.2 ± 0.3 nM | 3.3 | 3.9 ± 0.2 nM | 1.2 to 1.7 nM | IC50 (A549 [5]; read-out: A549 IC50, 72 h exposure, SRB, mean ± SD): 1.2 ± 0.1 nM; SI for A549, MCF-7, and LoVo cells (span) [9]: 2.1–3.9 |
| CNc1ccc2c(cc1=O)[C@@H](n1cc(CNC(=O)Oc3ccccc3)nn1)CCc1cc(OC)c(OC)c(OC)c1-2 [Compound 43] | 4.1 ± 0.6 nM | 2.7 | 920 ± 150 nM | 200 | <0.1 | 4.7 ± 1.1 nM | 2.3 | 2.8 ± 1.2 nM | 3.9 | 11 ± 0.4 nM |  | SI for A549, MCF-7, and LoVo cells (span) [9]: 2.1–3.9 |
